According to patent publication US8227492B2, “Sulfoxamine derivatives as factor Xa inhibitors” (Cadila Healthcare Limited, priority 2007, dated 2012):

How the values were obtained:
[1] = target: Factor Xa (Homo sapiens, UniProt P00742); assay: In vitro Factor Xa inhibition, chromogenic assay; assay type: biochemical; settings: 0.1 μM compound; for inhibition at 0.1 µM: read-out: % Factor Xa inhibition at 0.1 μM using chromogenic assay
Procedure: (§1) In vitro Factor Xa inhibitory activities were determined as per standard protocols and the results of representative compounds are provided in tables 1 and 2 below as proof of the efficacies of the novel class of compounds disclosed above.

[2] = tested on: human plasma; assay: Prothrombin time doubling concentration (PTCT2) using human plasma; assay type: biochemical
Procedure: as §1

Factor Xa, sequence (P00742 235-488 limits assumed): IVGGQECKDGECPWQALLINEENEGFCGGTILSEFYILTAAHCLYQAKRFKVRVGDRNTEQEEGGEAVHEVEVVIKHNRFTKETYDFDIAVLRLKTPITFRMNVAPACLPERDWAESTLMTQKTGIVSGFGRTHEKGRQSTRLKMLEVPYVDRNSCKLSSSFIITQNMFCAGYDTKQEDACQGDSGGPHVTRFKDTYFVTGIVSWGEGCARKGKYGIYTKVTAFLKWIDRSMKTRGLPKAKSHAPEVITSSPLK
Factor Xa, sequence (P00742 41-179 partner limits assumed): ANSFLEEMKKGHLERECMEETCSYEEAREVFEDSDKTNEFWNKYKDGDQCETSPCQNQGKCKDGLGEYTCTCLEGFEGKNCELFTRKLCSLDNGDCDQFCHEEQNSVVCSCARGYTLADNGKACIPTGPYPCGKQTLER

| Compound | inhibition at 0.1 µM [1] [%] | % Factor Xa inhibition at 0.1 μM using chromogenic assay [1] [%] | PTCT2 (Conc. required to double the prothrombin time using human plasma) [2] [µM] |
| --- | --- | --- | --- |
| CS(=O)(=O)N=S(C)(=O)c1ccccc1-c1ccc(C(=O)Nc2ccc(Cl)cc2C(=O)Nc2ccc(Cl)cn2)cc1 (stereo not drawn) [Example 14, S-(2-[4-(N-{2-[N-(5-chloro-2-pyridyl)carbamoyl]-4-chlorophenyl}carbamoyl)phenyl]-phenyl)-S-methyl-N-methanesulfonyl sulfoximide] | 84 | – | – |
| CS(=O)(=NC(=O)c1ccncc1)c1ccccc1-c1ccc(C(=O)Nc2ccc(Cl)cc2C(=O)Nc2ccc(Cl)cn2)cc1 (stereo not drawn) [Example 24, S-(2-[4-(N-{2-[N-(5-chloro-2-pyridyl)carbamoyl]-4-chlorophenyl}carbamoyl)phenyl]-phenyl)-S-methyl-N-(4-pyridylcarbonyl)sulfoximide] | 85 | – | – |
| COc1ccc(NC(=O)c2ccc(S(C)(=O)=NC(=O)CN(C)C)cc2)c(C(=O)Nc2ccc(Cl)cn2)c1 (stereo not drawn) [Example 40, S-[4-(N-{2-[N-(5-chloro(2-pyridyl))carbamoyl]-4-methoxyphenyl}carbamoyl)phenyl]-S-methyl-N-(2-dimethylamino-acetyl)sulfoximide] | 56 | – | 1.2 |
| S-(2-[4-(N-{2-[N-(5-chloro-2-pyridyl)carbamoyl]-4-chlorophenyl}carbamoyl)phenyl]-phenyl)-S-methyl-N-[2-(4-aminopiperidinyl)-acetyl]sulfoximide [Example 56] | – | 81 | – |
| COc1cc(Cl)cc(C(=O)Nc2ccc(Cl)cn2)c1NC(=O)c1ccc(-c2ccccc2S(C)(=N)=O)cc1 (stereo not drawn) [Example 5, S-(2-[4-(N-{2-[N-(5-chloro-2-pyridyl)carbamoyl]-4-chloro-6-methoxyphenyl}carbamoyl)phenyl]-phenyl)-S-methyl Sulfoximide] | 95 | – | 0.69 |
| CS(=N)(=O)c1ccc(C(=O)Nc2ccc(Cl)cc2C(=O)Nc2ccc(Cl)cn2)cc1 (stereo not drawn) [Example 1, S-[4-(N-{2-[N-(5-chloro(2-pyridyl))carbamoyl]-4-chlorophenyl}carbamoyl)phenyl]-S-methyl Sulfoximide] | 75 | – | – |
| CS(=O)(=NC(=O)C1CCNCC1)c1ccccc1-c1ccc(C(=O)Nc2ccc(Cl)cc2C(=O)Nc2ccc(Cl)cn2)cc1 (stereo not drawn) [Example 26, S-(2-[4-(N-{2-[N-(5-chloro-2-pyridyl)carbamoyl]-4-chlorophenyl}carbamoyl)phenyl]-phenyl)-S-methyl-N-(4-piperidinylcarbonyl)sulfoximide] | 69 | – | – |
| CCN1CCC(C(=O)N=S(C)(=O)c2ccccc2-c2ccc(C(=O)Nc3ccc(Cl)cc3C(=O)Nc3ccc(Cl)cn3)cc2)CC1 (stereo not drawn) [Example 28, S-(2-[4-(N-{2-[N-(5-chloro-2-pyridyl)carbamoyl]-4-chlorophenyl}carbamoyl)phenyl]-phenyl)-S-methyl-N-(1-ethyl-piperidine-4-carbonyl)sulfoximide] | 82 | – | – |
| CN(C)CC(=O)N=S(C)(=O)c1ccccc1-c1ccc(C(=O)Nc2ccc(Cl)cc2C(=O)Nc2ccc(Cl)cn2)cc1 (stereo not drawn) [Example 41, S-(2-[4-(N-{2-[N-(5-chloro-2-pyridyl)carbamoyl]-4-chlorophenyl}carbamoyl)phenyl]-phenyl)-S-methyl-N-(2-dimethylamino-acetyl)sulfoximide] | 95 | – | 1.9 |
| CCN(CC)CC(=O)N=S(C)(=O)c1ccc(C(=O)Nc2ccc(Cl)cc2C(=O)Nc2ccc(Cl)cn2)cc1 (stereo not drawn) [Example 42, S-[4-(N-{2-[N-(5-chloro(2-pyridyl))carbamoyl]-4-chlorophenyl}carbamoyl)phenyl]-S-methyl-N-(2-diethylamino-acetyl)sulfoximide] | 70 | – | 0.7 |
| CS(=N)(=O)c1ccccc1-c1ccc(C(=O)Nc2ccc(Cl)cc2C(=O)Nc2ccc(Cl)cn2)cc1 (stereo not drawn) [Example 4, S-(2-[4-(N-{2-[N-(5-chloro-2-pyridyl)carbamoyl]-4-chlorophenyl}carbamoyl)phenyl]-phenyl)-S-methyl sulfoximide] | 93 | – | 4.1 |

The next lines start with results.

| inhibition at 0.1 µM [1] [%] | % Factor Xa inhibition at 0.1 μM using chromogenic assay [1] [%] | Compound | PTCT2 (Conc. required to double the prothrombin time using human plasma) [2] [µM] |
| --- | --- | --- | --- |
| 60 | – | CS(=O)(=NC(=O)CN1CCCCC1)c1ccc(C(=O)Nc2ccc(Cl)cc2C(=O)Nc2ccc(Cl)cn2)cc1 (stereo not drawn) [Example 52, S-[4-(N-{2-[N-(5-chloro(2-pyridyl))carbamoyl]-4-chlorophenyl}carbamoyl)phenyl]-S-methyl-N-[(2-piperidin-1-yl)-acetyl]sulfoximide] | – |
| 64 | – | CS(=O)(=NC(=O)CN1CCCC1)c1ccc(C(=O)Nc2ccc(Cl)cc2C(=O)Nc2ccc(Cl)cn2)cc1 (stereo not drawn) [Example 50, S-[4-(N-{2-[N-(5-chloro(2-pyridyl))carbamoyl]-4-chlorophenyl}carbamoyl)phenyl]-S-methyl-N-[(2-pyrrolidin-1-yl)-acetyl]sulfoximide] | 0.68 |
| 77 | – | CCN(CC)CCN=S(C)(=O)c1ccc(C(=O)Nc2ccc(Cl)cc2C(=O)Nc2ccc(Cl)cn2)cc1 (stereo not drawn) [Example 74, S-[4-(N-{2-[N-(5-chloro(2-pyridyl))carbamoyl]-4-chlorophenyl}carbamoyl)phenyl]-S-methyl-N-(2-(diethylamino)ethyl)sulfoximide] | 1.23 |
| 66 | – | CN(C)CCN=S(C)(=O)c1ccc(C(=O)Nc2ccc(Cl)cc2C(=O)Nc2ccc(Cl)cn2)cc1 (stereo not drawn) [Example 76, S-[4-(N-{2-[N-(5-chloro(2-pyridyl))carbamoyl]-4-chlorophenyl}carbamoyl)phenyl]-S-methyl-N-[2-dimethylamino-ethyl]sulfoximide] | 1.14 |
| 79 | – | CCN(CC)CC(=O)N=S(C)(=O)c1ccccc1-c1ccc(C(=O)Nc2ccc(Cl)cc2C(=O)Nc2ccc(Cl)cn2)cc1 (stereo not drawn) [Example 43, S-(2-[4-(N-{2-[N-(5-chloro-2-pyridyl)carbamoyl]-4-chlorophenyl}carbamoyl)phenyl]-phenyl)-S-methyl-N-(2-diethylamino-acetyl)sulfoximide] | – |
| 79 | – | CS(=O)(=NC(=O)CN1CCCCC1)c1ccccc1-c1ccc(C(=O)Nc2ccc(Cl)cc2C(=O)Nc2ccc(Cl)cn2)cc1 (stereo not drawn) [Example 53, S-(2-[4-(N-{2-[N-(5-chloro-2-pyridyl)carbamoyl]-4-chlorophenyl}carbamoyl)phenyl]-phenyl)-S-methyl-N-[(2-piperidin-1-yl)-acetyl]sulfoximide] | – |
| 74 | – | CS(=O)(=NCCN1CCCC1)c1ccc(C(=O)Nc2ccc(Cl)cc2C(=O)Nc2ccc(Cl)cn2)cc1 (stereo not drawn) [Example 75, S-[4-(N-{2-[N-(5-chloro(2-pyridyl))carbamoyl]-4-chlorophenyl}carbamoyl)phenyl]-S-methyl-N-(2-(pyrrolidin-1-yl)ethyl)sulfoximide] | 0.98 |
